One molecule from patent US20250318532A1, “ASCAROSIDE COMBINATIONS” (Ascribe Bioscience Inc., priority 2022, published 2025) can be followed below.

Molecules are shown by their SMILES.

The test system of the assay is Asian Soybean Rust (ASR). Kind of assay: Soybean field trial in Brazil, ascaroside with Chlorothalonil and APROACH POWER. Format: in vivo. As to conditions: ascaroside alone, 250 mg/ac, foliar spray, relative to untreated controls.

On to `CC1OC(O[C@H](C)CCCCCCCCC(=O)O)C(O)CC1O` (stereo partly shown) [ascr #18], for which the “protection against Asian Soybean Rust” value is reported as 20-40%.
